Measured values as given in publication PMC5355235, “FLT3 activating mutations display differential sensitivity to multiple tyrosine kinase inhibitors” (Oncotarget, 2017).
Where a chain is given by its changes, count along the chain named.

Assays:
FLT3 I836T = target: T1, FLT3 I836T (Homo sapiens, UniProt P36888, I836T); assay: FLT3 autophosphorylation, immunoprecipitation/Western blot, I836T; type: cell-based; conditions: I836T mutant, concentrations of 200 nM, 1 h
T1 construct: expressed in transfected cells; host or cells: BaF3
T1 sequence (P36888 27-993 I836T): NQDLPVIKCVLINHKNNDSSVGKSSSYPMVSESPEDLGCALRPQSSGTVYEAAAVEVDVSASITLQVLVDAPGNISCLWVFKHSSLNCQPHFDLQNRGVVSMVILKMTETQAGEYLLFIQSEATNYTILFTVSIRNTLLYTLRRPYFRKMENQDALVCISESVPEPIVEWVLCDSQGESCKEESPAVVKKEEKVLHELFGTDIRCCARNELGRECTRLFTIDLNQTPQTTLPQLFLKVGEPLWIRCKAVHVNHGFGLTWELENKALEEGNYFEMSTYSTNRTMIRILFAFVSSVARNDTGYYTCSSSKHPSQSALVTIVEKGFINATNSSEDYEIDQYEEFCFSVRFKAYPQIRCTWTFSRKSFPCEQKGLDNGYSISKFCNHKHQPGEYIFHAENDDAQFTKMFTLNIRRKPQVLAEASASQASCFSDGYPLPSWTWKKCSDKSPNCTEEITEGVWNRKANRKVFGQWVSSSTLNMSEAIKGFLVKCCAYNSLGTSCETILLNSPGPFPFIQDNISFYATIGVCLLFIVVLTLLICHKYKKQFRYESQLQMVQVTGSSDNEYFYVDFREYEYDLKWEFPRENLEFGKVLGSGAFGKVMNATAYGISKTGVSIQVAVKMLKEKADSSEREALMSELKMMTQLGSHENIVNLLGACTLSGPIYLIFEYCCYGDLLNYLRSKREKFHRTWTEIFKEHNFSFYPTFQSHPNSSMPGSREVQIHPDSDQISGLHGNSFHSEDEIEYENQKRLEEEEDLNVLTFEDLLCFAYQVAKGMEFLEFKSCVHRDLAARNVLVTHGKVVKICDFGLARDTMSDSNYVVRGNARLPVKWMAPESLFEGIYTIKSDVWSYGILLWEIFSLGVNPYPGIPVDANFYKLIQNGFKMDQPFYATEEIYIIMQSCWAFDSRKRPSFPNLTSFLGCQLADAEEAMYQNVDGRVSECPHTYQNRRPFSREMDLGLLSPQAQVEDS
Description: (§1) Activated FLT3 expression was measured by performing immunoprecipitation, SDS-PAGE and Western blotting as previously described. Specifically, 10^7 cells were washed in medium and treated with inhibitor for 1 h followed by stimulation with 25 ng/ml of FLT3 ligand for 15 minutes where indicated. Cells were washed twice with ice-cold PBS and lysed in 300 µl of NP-40 lysis buffer (150 mM NaCl, 20 mM TrisHCl (pH7.4), 10% glycerol, 1% NP-40, 10 mM EDTA, 100 mM NaF) with 2 mM Na3VO4 and protease inhibitors (Complete Tablets, Roche, Mannheim, Germany) at 4°C for 30 m. Cell lysate was harvested by centrifugation at 13,000 × g for 30 m at 4°C. FLT3 S-18 antibody was incubated with 500 µg lysate overnight at 4°C followed by immunoprecipitation with protein A-agarose beads for 2 h. Beads were washed once in Tris buffered saline with 1% Tween-20 (TBST) and twice in TBS. Samples were boiled in sodium dodecyl sulfate (SDS) sample buffer prior to separating in a 8% SDS-polyacrylamide gel (SDS-PAGE). Proteins were transferred to a polyvinyl diflouride (PVDF) membrane (Millipore, Bedford, MA, USA) and detected by 4G10 phosphotyrosine antibody and anti-FLT3 S-18 antibody. FLT3 was visualized using the Odyssey Infra Red Imaging System from Li-Cor (Lincoln, NE, USA) using AlexaFluor 680 goat anti-mouse and AlexaFluor 800 goat anti-rabbit antibodies. […]

FLT3 I836S = target: T2, FLT3 I836S (Homo sapiens, UniProt P36888, I836S); assay: FLT3 autophosphorylation, immunoprecipitation/Western blot, I836S; type: cell-based; conditions: I836S mutant, concentrations of 200 nM, 1 h
T2 construct: expressed in transfected cells; host or cells: BaF3
T2 sequence (P36888 27-993 I836S): T1 sequence (P36888 27-993 I836T) with T810S
Description: as §1

Compound | Inhibition of FLT3 phosphorylation (FLT3 I836T) | Inhibition of FLT3 phosphorylation (FLT3 I836S)
CC1(COc2ccc3c(c2)ncn3-c2ccc3cccc(N4CCC(N)CC4)c3n2)COC1 [Crenolanib] | significant autophosphorylation still observable | significant autophosphorylation still observable
Cc1ccc(C(=O)Nc2ccc(CN3CCN(C)CC3)c(C(F)(F)F)c2)cc1C#Cc1cnc2cccnn12 [Ponatinib] | significant autophosphorylation still observable | significant autophosphorylation still observable
